From US11752159B2, “Compositions and methods for suppressing or reducing systemic immune response in a subject” (THE TRUSTEES OF THE UNIVERSITY OF PENNSYLVANIA, priority 2015, dated 2023)

Columns and labels:
NOD mice = test: NOD mouse model of type I diabetes, topical MC903; assay type: in vivo
Excerpt: FIGS. 5A-5B comprise graphs illustrating data derived from topical treatment of NOD mice with EtOH or MC903 (2 nmol) 3 times/week every other week at Week 5 of age; treatment was stopped at Week 15 of age. FIG. 5A illustrates the percentage of Tregs out of CD4+ T cells in the blood of NOD mice before (Day 0) and after treatment (Day 8). […] The % of mice with diabetes is plotted over the age of the mice (N=7 mice/group-EtOH; N=8 mice/group-MC903).
To test whether topical treatment with MC903 would lead to amerilioration of inflammatory disorders, it was tested whether topical application of MC903 protected a mouse against type I diabetes (T1D), using a non-obese diabetes (NOD) mouse model of diabetes. NOD mice were treated 3 times a week with MC903 on alternating ears every week.

B6 mice = test: K/BxN serum-induced arthritis mouse model, topical MC903; assay type: in vivo
Description: FIGS. 8A-8B comprise graphs illustrating data derived from injecting B6 mice with 75 μl of serum from K/B×N mice on Days 0 and 2, and topically treating the mice with MC903 starting at Day 0. FIG. 8A illustrates the percentage of Tregs in blood of B6 mice determined on Day 8 post MC903 treatment in comparison with EtOH treatment. FIG. 8B illustrates the change of ankle thickness over time after B6 mice were injected with 75 μl of serum from K/B×N mice on Days 0 and 2, and were topically treated with MC903 starting at Day 0. Ankle thickness was measured twice a week and plotted as % maximal ankle thickness of each mouse. N=3 mice/group. Whether MC903 treatment can attenuate joint swelling in a mouse model of rheumatoid arthritis was tested in the following experiment. In this model, serum from arthritic mice (K/B×N) is injected into normal wildtype mice. […] Mice were treated topically with MC903 or EtOH (daily) and injected with arthritogenic serum (on Days 0 and 2).

TSLP = test: Systemic TSLP induction by topical vitamin D3 analogs (ELISA); assay type: in vivo, mice; conditions: topical, ear skin bilaterally, 2 nmol/ear in ethanol, after 5 days of treatment
[1] = Toxicity (morbidity and mortality) of topical vitamin D3 analogs in mice; assay type: in vivo; conditions: mouse, in vivo
Description: VDR stimulation of keratinocytes led to TSLP production, which in certain embodiments caused increase in Treg numbers. The effects of two vitamin D3 analogs (22-Oxacalcitriol, also known as 22-OXA, and EB1089) on TSLP production and Treg numbers were evaluated. Similarly to MC903, 22-OXA and EB1089 were applied to the ear skin bilaterally at a dose of 2 nmol/ear dissolved in ethanol. After 5 days of treatment, the mice were bled and serum TSLP levels were measured. […] To avoid the toxic effect, the dose of 22-OXA and EB1089 was lowered to a point where morbidity and mortality of mice was not observed (0.4 nmol/ear for 22-OXA; 0.04 nmol/ear for EB1089). At this dose, no increase in TSLP level was detected in 22-OXA-treated mice (FIG. 9B).

C57BL6 mice = test: High fat diet (HFD) type II diabetes mouse model, topical MC903; assay type: in vivo; conditions: topical three times a week every other week, vs ethanol
Description: FIG. 13 comprises a graph illustrating the finding that topical administration of MC903 improves overnight fasting glucose levels in mice fed with 12 weeks of high fat diet (HFD).
Topical administration of MC903 was evaluated in a model of high fat diet (HFD) type II diabetes mice. Male C57BL6 mice, which were 8 weeks at the onset of the study, were used. The mice were fed a high fat diet (45 kcal % of fat; research diet No. D12451, OpenSource Diets) for 20 weeks. During this period, the mice were topically administered ethanol or MC903 three times a week (Monday, Wednesday and Friday), every other week, for the duration of the experiment.

Tregs = test: Dosing schedule of chronic topical MC903: circulating Tregs and atopic dermatitis; assay type: in vivo, mice
Excerpt: FIG. 11 comprises a graph illustrating data derived from topically treating mice with MC903 (2 nmol on one ear) 3 times/week every other week or with MC903 (2 nmol on one ear) 3 times/week every week (alternating ears every week) for 8 weeks. The % of Tregs out of CD4+ T cells in the blood before (baseline) and after treatment (Weeks 1, 4, 6, and 8) is illustrated. N=3 mice/group. * p<0.05 by Student t-test.
FIG. 12 comprises a graph illustrating data derived from topically treating mice with EtOH or MC903 (2 nmol) 3 times/week every other week for 10 weeks. The % of Tregs out of CD4+ T cells in the blood before (Day 0) and after treatment (Day 8 and Week 10) is illustrated. N=7 mice/group.
To test whether chronic MC903 treatment results in sustained increases in Treg numbers, mice were continuously treated with MC903 for more than 2 weeks.
To avoid this local toxic effect of MC903, alternating ears were treated every week (right ear for 1 week, followed by the left ear for 1 week, then back to the right ear for 1 week, and so on). […] Without wishing to be limited by any theory, the increase in Tregs appeared to be become refractory to the chronic MC903 treatment. Thus, the protocol was modified so that a 1-week rest period (pulse treatment) was given between weekly treatments.

[2] = test system: regulatory T cells (Tregs); test: Topical MC903 on ear skin of wildtype mice, fraction of Tregs in skin, blood and lymphoid organs; assay type: in vivo; conditions: 2 nmol
Excerpt: FIGS. 1A-1B comprise graphs relating to topical treatment of B6 mice with EtOH or MC903 (2 nmol) on one ear. FIG. 1A, comprising FACS data and a graph, illustrates the percentage of regulatory T cells (Tregs) in the ear skin homogenate of B6 mice. “Treated” refers to topical administration of MC903 to the ear skin of the B6 mice. “Untreated” refers to topical administration of EtOH to the ear skin of the B6 mice. FIG. 1B comprises graphs illustrating the percentage of Tregs out of CD4+ T cells in the blood, spleen, and peripheral lymph nodes of B6 mice topically treated with MC903. FIG. 2 is a graph illustrating the percentage of Tregs out of CD4+ T cells in the spleen after B6 mice were treated topically or injected intraperitoneally with EtOH or MC903 (2 nmol). Wildtype (WT) mice were treated with vehicle (100% EtOH) or MC903 once a day on the skin of one ear for 7 days. On Day 8, the ear skin of both ears, blood, and secondary lymphoid organs (lymph nodes and spleen) were harvested.

[3] = 3 days (every other day)/week every other week

C=C1/C(=C\C=C2/CCC[C@]3(C)[C@@H]([C@H](C)/C=C/[C@@H](O)C4CC4)CC[C@@H]23)C[C@@H](O)C[C@@H]1O [MC903, 26,27-cyclo-22-ene-1α,24S-dihydroxyvitamin D3]
circulating Treg levels (NOD mice; Day 8 post-treatment, compared to vehicle): increased
atopic dermatitis under treatment protocol (NOD mice; topical 3 times a week on alternating ears, 8 weeks): little to no evidence of atopic dermatitis
incidence of T1D (two consecutive blood glucose readings >250 mg/dl) (NOD mice; topical MC903 compared to vehicle): significantly attenuated
joint swelling and erythema after Day 7 (B6 mice; concomitant with the elevated Treg percentages): quick reduction
circulating Treg levels (B6 mice; mice injected with arthritogenic serum, topical daily): increased
serum TSLP levels (TSLP): can induce TSLP production
systemic toxicity [1]: without any apparent systemic toxicity
overnight fasting glucose levels (C57BL6 mice): improved overnight fasting glucose levels
atopic inflammation, pulse treatment (Tregs; [3]): atopic inflammation was avoided
circulating Treg numbers, pulse treatment (Tregs; [3]): increased over a 10 week period
Tregs at Day 8, alternating ear protocol (Tregs; alternating ears every week, Day 8): increased systemically
circulating Tregs at Week 4 of treatment and beyond, alternating ear protocol (Tregs; alternating ears every week, no rest week): not increased
atopic dermatitis with alternating ear protocol (Tregs; alternating ears treated every week): minimal atopic dermatitis
local toxicity with chronic once/day treatment of more than 1 week (Tregs; mouse, in vivo): development of atopic dermatitis of the ear skin
effect on Tregs (spleen) when injected intraperitoneally ([2]; intraperitoneal injection): No effect
increase in the fraction of Tregs (% Foxp3+ of CD4+ T cells) in treated ear skin ([2]; topical once a day on one ear for 7 days, Day 8, compared to EtOH-treated side): about 2 fold
